Data on ten compounds can be found in ChEMBL document CHEMBL5137067, “Spiro-naphthyridine Antagonists of the Melanocortin Receptor 4 for the Treatment of Cachexia Associated with Chronic Illness” (ACS Med Chem Lett, 2022).

Experiment [1] has as its target T1, Melanocortin receptor 4 (Homo sapiens, UniProt P32245). In words: Displacement of [125I]-[Nle4-D-phe7]-alpha-MSH from to human MC4R expressed in CHO cells incubated for 2 hrs by liquid scintillation counting method. The format is cell-based.
The target in experiment [2] is T1, Melanocortin receptor 4. In words: Antagonist activity at human MC4R expressed in CHO cells assessed as decrease in alpha-MSH induced cAMP level by measuring equilibrium binding constant preincubated for 30 mins followed by alpha-MSH addition measured after 30 mins by HTRF method. The format is functional, cell-based. The settings on record: time 60.0 min. For orientation: Cyclic AMP is a second messenger, typically raised through Gs and lowered through Gi signalling.

T1 sequence (P32245 whole entry): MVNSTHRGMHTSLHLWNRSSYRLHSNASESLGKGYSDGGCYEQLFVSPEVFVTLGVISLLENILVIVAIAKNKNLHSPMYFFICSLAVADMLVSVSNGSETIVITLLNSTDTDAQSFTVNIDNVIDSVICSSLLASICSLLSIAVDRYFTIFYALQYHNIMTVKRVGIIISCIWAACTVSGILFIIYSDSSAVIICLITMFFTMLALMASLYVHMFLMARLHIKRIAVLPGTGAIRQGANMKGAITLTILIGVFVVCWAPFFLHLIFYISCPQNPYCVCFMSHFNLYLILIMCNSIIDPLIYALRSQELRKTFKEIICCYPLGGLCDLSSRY

In general, Ki refers to the equilibrium dissociation constant of an inhibitor or competing ligand from its target. Compound `Cc1nc2c(cc1-c1ncccn1)CC[C@@]1(CCN(C(=O)[C@H](C)c3ccc(OC(F)F)nc3)C1)N2` showed an inhibition constant Ki on Melanocortin receptor 4 [1] above 200 nM.
Broadly, the Kb is the affinity of an antagonist, worked out from how it opposes an agonist. For the compound `COc1cc([C@@H](C)C(=O)N2CC[C@@]3(CCc4cc(-c5nc6ccccn6n5)c(C)nc4N3)C2)c(Cl)cn1`, at Melanocortin receptor 4 [1], the Ki turned out to be 0.28 nM. Besides, the antagonist equilibrium constant (Kb) on Melanocortin receptor 4 [2] (filed as antagonist) stood at 0.07 nM.
As for `COc1cc([C@@H](C)C(=O)N2CC[C@@]3(CCc4cc(-c5nnn(C)n5)c(C)nc4N3)C2)c(Cl)cn1`, the antagonist equilibrium constant (Kb) on Melanocortin receptor 4 [2] (filed as antagonist) turned out to be 0.049 nM.
Consider `Cc1nc2c(cc1-c1cnn(C)c1)CC[C@@]1(CCN(C(=O)C(C)c3ccc(OC(F)F)nc3)C1)N2` (stereo partly drawn), for which affinity at Melanocortin receptor 4 [1] was put at a Ki of 57 nM.
Regarding `COc1cc([C@@H](C)C(=O)N2CC[C@@]3(CCc4cc(-c5nc(C(F)F)n(C)n5)c(C)nc4N3)C2)c(Cl)cn1`, the Kb on Melanocortin receptor 4 [2] (filed as antagonist) came to 0.08 nM.
In turn, `Cc1nc2c(cc1-c1ncccn1)CC[C@@]1(CCN(C(=O)C(C)c3ccc(Cl)cc3Cl)C1)N2` (stereo partly drawn) had a Ki at Melanocortin receptor 4 [1] of 82 nM. The antagonist equilibrium constant (Kb) at Melanocortin receptor 4 [2] is above 96 nM.
In the case of `Cc1nc2c(cc1-c1ncccn1)CC[C@@]1(CCN(C(=O)[C@@H](C)c3ccc(OC(F)F)nc3)C1)N2`, the Kb on Melanocortin receptor 4 [2] (filed as antagonist) was 8.5 nM.
Still for that read-out and setting: then `COc1cc([C@@H](C)C(=O)N2CC[C@]3(CCc4cc(-c5nnn(C)n5)c(C)nc4N3)C2)c(Cl)cn1`, with 1.2 nM.
On Melanocortin receptor 4 [1], `Cc1nc2c(cc1-c1ncccn1)CC[C@@]1(CCN(C(=O)C(C)c3cc(OC(F)F)ncc3Cl)C1)N2` (single isomer, unassigned) had a Ki of 0.54 nM. Further, at Melanocortin receptor 4 [2] (filed as antagonist), the antagonist dissociation constant (Kb) is 0.18 nM.
For the compound `COc1cc(OC)cc([C@@H](C)C(=O)N2CCC3(CCc4cc(-c5cnn(C)c5)c(C)nc4N3)C2)c1` (single isomer, unassigned), the antagonist equilibrium constant (Kb) on Melanocortin receptor 4 [2] (filed as antagonist) worked out at 0.4 nM.
